From patent US11225505B2, “Antimicrobial polymyxin derivative compounds” (MONASH UNIVERSITY, priority 2015, dated 2022)
Values after ≈ are worked out from the molar mass of the structure shown. Where a SMILES comes first, the peptide text is derived from it. Bridges are numbered along the chain shown (N, C = ends). [ ]: non-standard residue; d: D form. The star is where a group is joined. Benzothiophen(2-yl)carbonyl = O=C(c1cc2ccccc2s1)*; Benzothiazole(5-carbonyl) = O=C(c1ccc2scnc2c1)*; Quinoline3carbonyl = O=C(c1cnc2ccccc2c1)*; X11 = Cn1nc(C(=O)*)c2ccccc21; Dab = NCC[C@H](N)C(=O)O; Abu = CC[C@H](N)C(=O)O; Dap = NC[C@H](N)C(=O)O

What was measured:
Assay type in all cases: cell-based
[1] = test system: Pseudomonas aeruginosa ATCC 27853; conditions: ATCC 27853
How it was run: (§1)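 The read-out is the MIC, obtained by CLSI broth microdilution (M100-S24) in cation-adjusted Mueller-Hinton broth. The compounds were lipopeptide TFA salts, and polymyxin B sulphate served as control.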

[2] = test system: Klebsiella pneumoniae Kp BM1; conditions: Kp BM1
How it was run: (§2)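 In cation-adjusted Mueller-Hinton broth, each lipopeptide (TFA salt) was titrated against the bacteria by microdilution and the minimum inhibitory concentration recorded per CLSI M100-S24; polymyxin B sulphate ran in parallel.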

[3] = test system: Pseudomonas aeruginosa FADDI-PA038; conditions: FADDI-PA038
How it was run: as §1

[4] = test system: Acinetobacter baumannii ATCC 17978; conditions: ATCC 17978
How it was run: as §1

[5] = test system: Acinetobacter baumannii FADDI-AB034; conditions: FADDI-AB034
How it was run: as §1

[6] = test system: Enterobacter cloacae FADDI-EC003; conditions: FADDI-EC003
How it was run: as §1

[7] = test system: Enterobacter cloacae FADDI-EC006; conditions: FADDI-EC006
How it was run: as §1

[8] = test system: Klebsiella pneumoniae FADDI-KP032; conditions: FADDI-KP032
How it was run: as §1

[9] = test system: Pseudomonas aeruginosa FADDI-PA022; conditions: FADDI-PA022
How it was run: as §1

[10] = test system: Klebsiella pneumoniae FADDI-KP022; conditions: FADDI-KP022
How it was run: as §1

[11] = test system: Pseudomonas aeruginosa FADDI-PA01; conditions: FADDI-
How it was run: as §1

[12] = test system: Enterobacter cloacae FADDI-EC001; conditions: FADDI-EC001
How it was run: as §2

[13] = test system: Acinetobacter baumannii FADDI-AB030; assay: microbe, parasite or virus in culture; conditions: FADDI-AB030
How it was run: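 Broth microdilution MIC in cation-adjusted Mueller-Hinton broth per CLSI M100-S24; lipopeptides tested as TFA salts. FADDI-AB030 is a multidrug-resistant clinical isolate. Polymyxin B sulphate served as control.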

Structure (SMILES) | Minimum inhibitory concentration [1] [µg/mL] | Minimum inhibitory concentration [2] [µg/mL] | Minimum inhibitory concentration [3] [µg/mL] | Minimum inhibitory concentration [4] [µg/mL] | Minimum inhibitory concentration [5] [µg/mL] | Minimum inhibitory concentration [6] [µg/mL] | Minimum inhibitory concentration [7] [µg/mL] | Minimum inhibitory concentration [8] [µg/mL] | Minimum inhibitory concentration [9] [µg/mL] | Minimum inhibitory concentration [10] [µg/mL] | Minimum inhibitory concentration [11] [µg/mL] | Minimum inhibitory concentration [12] [µg/mL] | Minimum inhibitory concentration [13] [µg/mL]
CC[C@@H]1NC(=O)[C@@H](CC(C)C)NC(=O)[C@H](CCN)NC(=O)[C@@H](NC(=O)[C@H](CN)NC(=O)[C@@H](NC(=O)[C@H](CCN)NC(=O)c2cc3ccccc3s2)[C@@H](C)O)CCNC(=O)[C@H]([C@@H](C)O)NC(=O)[C@H](CCN)NC(=O)[C@H](CCN)NC1=O [Compound 50] ({Benzothiophen(2-yl)carbonyl}-[Dab]T[Dap][Dab][Dab][dL][Abu][Dab][Dab]T; lactam 4-C) | 0.5 (≈ 0.436 µM) | 0.5 (≈ 0.436 µM) | 0.25 (≈ 0.218 µM) | <0.125 | <0.125 | 0.5 (≈ 0.436 µM) | 0.5 (≈ 0.436 µM) | 0.25 (≈ 0.218 µM) | 0.25 (≈ 0.218 µM) | <0.125 | <0.125 | 0.25 (≈ 0.218 µM) | 0.5 (≈ 0.436 µM)
CC[C@@H]1NC(=O)[C@@H](CC(C)C)NC(=O)[C@H](CCN)NC(=O)[C@@H](NC(=O)[C@H](CN)NC(=O)[C@@H](NC(=O)[C@H](CCN)NC(=O)c2nn(C)c3ccccc23)[C@@H](C)O)CCNC(=O)[C@H]([C@@H](C)O)NC(=O)[C@H](CCN)NC(=O)[C@H](CCN)NC1=O [Compound 51] (X11-[Dab]T[Dap][Dab][Dab][dL][Abu][Dab][Dab]T; lactam 4-C) | 0.25 (≈ 0.218 µM) | <0.125 | 1 (≈ 0.873 µM) | 0.25 (≈ 0.218 µM) | 0.25 (≈ 0.218 µM) | 0.25 (≈ 0.218 µM) | 0.5 (≈ 0.437 µM) | <0.125 | 0.25 (≈ 0.218 µM) | <0.125 | 0.25 (≈ 0.218 µM) | <0.125 | <0.125
CC[C@@H]1NC(=O)[C@@H](CC(C)C)NC(=O)[C@H](CCN)NC(=O)[C@@H](NC(=O)[C@H](CN)NC(=O)[C@@H](NC(=O)[C@H](CCN)NC(=O)c2cnc3ccccc3c2)[C@@H](C)O)CCNC(=O)[C@H]([C@@H](C)O)NC(=O)[C@H](CCN)NC(=O)[C@H](CCN)NC1=O [Compound 52] (Quinoline3carbonyl-[Dab]T[Dap][Dab][Dab][dL][Abu][Dab][Dab]T; lactam 4-C) | 0.5 (≈ 0.438 µM) | 0.5 (≈ 0.438 µM) | 0.25 (≈ 0.219 µM) | 2 (≈ 1.75 µM) | 1 (≈ 0.875 µM) | 0.5 (≈ 0.438 µM) | 1 (≈ 0.875 µM) | <0.125 | 0.5 (≈ 0.438 µM) | <0.125 | 0.5 (≈ 0.438 µM) | <0.125 | 0.5 (≈ 0.438 µM)
CC[C@@H]1NC(=O)[C@@H](CC(C)C)NC(=O)[C@H](CCN)NC(=O)[C@@H](NC(=O)[C@H](CN)NC(=O)[C@@H](NC(=O)[C@H](CCN)NC(=O)c2ccc3scnc3c2)[C@@H](C)O)CCNC(=O)[C@H]([C@@H](C)O)NC(=O)[C@H](CCN)NC(=O)[C@H](CCN)NC1=O [Compound 53] ({Benzothiazole(5-carbonyl)}-[Dab]T[Dap][Dab][Dab][dL][Abu][Dab][Dab]T; lactam 4-C; N-terminus assumed) | 0.5 (≈ 0.435 µM) | 0.5 (≈ 0.435 µM) | 0.5 (≈ 0.435 µM) | 2 (≈ 1.74 µM) | 2 (≈ 1.74 µM) | 0.25 (≈ 0.218 µM) | 2 (≈ 1.74 µM) | <0.125 | 0.25 (≈ 0.218 µM) | <0.125 | 0.5 (≈ 0.435 µM) | <0.125 | 1 (≈ 0.871 µM)
